Active and inactive are the calls of the source.
Legend:
[1] = tested on: HEK293; assay: viability loss in HEK293T cells – cell-based, ATP luminescence, cherry-pick samples, cytotoxicity control, dose response (AID 687005); type: functional; details: Homo sapiens;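 note: cells exposed to compound for 48 hours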
[2] = HEK293 Cytotoxicity Assay Measured in Cell-Based System Using Plate Reader - 7071-01_Inhibitor_Dose_CherryPick_Activity_Set2.; type: functional
[3] = tested on: Streptococcus sp. 'group A'; assay: Streptococcus pyogenes SK(-)GAS viability under kanamycin – luminescence, BacTiterGlo, confirmation, counter-screen for streptokinase expression inhibitor project, dose response (AID 1900); type: functional, organism-based; details: Streptococcus sp. 'group A'
[4] = target: T1, Replicative DNA helicase DnaB (Mycobacterium tuberculosis, UniProt P9WMR3); assay: DnaB intein splicing inhibitors, dose response, biochemical, cell-free fluorescence (AID 449749); type: functional
T1 sequence (P9WMR3 whole entry): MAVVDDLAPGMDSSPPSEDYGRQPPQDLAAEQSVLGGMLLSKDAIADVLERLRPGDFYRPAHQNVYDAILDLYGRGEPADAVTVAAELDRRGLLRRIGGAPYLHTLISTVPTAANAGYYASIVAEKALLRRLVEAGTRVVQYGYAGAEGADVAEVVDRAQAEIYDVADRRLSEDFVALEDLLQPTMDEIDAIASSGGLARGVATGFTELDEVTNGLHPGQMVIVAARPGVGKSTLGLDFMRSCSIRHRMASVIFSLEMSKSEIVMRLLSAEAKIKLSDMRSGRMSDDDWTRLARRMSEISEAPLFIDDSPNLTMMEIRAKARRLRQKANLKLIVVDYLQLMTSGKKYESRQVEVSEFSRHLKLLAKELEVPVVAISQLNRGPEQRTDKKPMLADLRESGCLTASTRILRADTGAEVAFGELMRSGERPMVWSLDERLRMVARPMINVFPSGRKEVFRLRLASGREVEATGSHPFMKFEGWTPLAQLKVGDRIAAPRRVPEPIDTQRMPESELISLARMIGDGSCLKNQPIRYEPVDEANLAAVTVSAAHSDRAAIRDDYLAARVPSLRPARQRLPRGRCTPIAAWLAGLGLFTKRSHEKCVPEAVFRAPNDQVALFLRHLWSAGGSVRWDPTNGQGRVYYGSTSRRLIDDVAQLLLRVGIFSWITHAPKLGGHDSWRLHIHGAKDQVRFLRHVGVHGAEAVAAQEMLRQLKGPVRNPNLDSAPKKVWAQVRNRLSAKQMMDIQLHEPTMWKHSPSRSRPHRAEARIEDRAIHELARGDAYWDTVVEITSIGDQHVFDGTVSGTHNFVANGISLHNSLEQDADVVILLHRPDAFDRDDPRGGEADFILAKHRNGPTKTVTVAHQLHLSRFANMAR

[5] = target: T2, Streptokinase A (Streptococcus pyogenes serotype M1, UniProt P10520); assay: viability-normalized secreted streptokinase activity reduction – plasminogen activation absorbance, OD405, dose response (AID 1914); type: functional, Streptococcus pyogenes M1 GAS;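 note: secreted streptokinase activity via plasminogen activation per viability signal from cell pellet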
T2 sequence (P10520 whole entry): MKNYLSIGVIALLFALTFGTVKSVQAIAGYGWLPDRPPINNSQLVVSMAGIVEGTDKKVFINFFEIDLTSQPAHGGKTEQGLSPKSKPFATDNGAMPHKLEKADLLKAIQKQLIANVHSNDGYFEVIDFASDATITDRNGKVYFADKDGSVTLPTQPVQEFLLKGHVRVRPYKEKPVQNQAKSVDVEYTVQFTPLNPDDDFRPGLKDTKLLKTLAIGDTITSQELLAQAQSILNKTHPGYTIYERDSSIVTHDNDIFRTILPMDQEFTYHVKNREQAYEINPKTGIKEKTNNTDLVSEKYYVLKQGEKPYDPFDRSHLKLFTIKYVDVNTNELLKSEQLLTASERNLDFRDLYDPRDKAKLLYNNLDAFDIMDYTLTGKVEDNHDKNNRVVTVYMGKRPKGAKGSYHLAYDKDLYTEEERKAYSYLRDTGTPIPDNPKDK

[6] = tested on: Vero; assay: cells; type: functional; details: Chlorocebus sabaeus
[7] = target: T3, Methionyl-tRNA synthetase, putative (Trypanosoma brucei brucei, UniProt Q38C91); type: functional, Trypanosoma brucei brucei strain 927/4 GUTat10.1
T3 sequence (Q38C91 whole entry): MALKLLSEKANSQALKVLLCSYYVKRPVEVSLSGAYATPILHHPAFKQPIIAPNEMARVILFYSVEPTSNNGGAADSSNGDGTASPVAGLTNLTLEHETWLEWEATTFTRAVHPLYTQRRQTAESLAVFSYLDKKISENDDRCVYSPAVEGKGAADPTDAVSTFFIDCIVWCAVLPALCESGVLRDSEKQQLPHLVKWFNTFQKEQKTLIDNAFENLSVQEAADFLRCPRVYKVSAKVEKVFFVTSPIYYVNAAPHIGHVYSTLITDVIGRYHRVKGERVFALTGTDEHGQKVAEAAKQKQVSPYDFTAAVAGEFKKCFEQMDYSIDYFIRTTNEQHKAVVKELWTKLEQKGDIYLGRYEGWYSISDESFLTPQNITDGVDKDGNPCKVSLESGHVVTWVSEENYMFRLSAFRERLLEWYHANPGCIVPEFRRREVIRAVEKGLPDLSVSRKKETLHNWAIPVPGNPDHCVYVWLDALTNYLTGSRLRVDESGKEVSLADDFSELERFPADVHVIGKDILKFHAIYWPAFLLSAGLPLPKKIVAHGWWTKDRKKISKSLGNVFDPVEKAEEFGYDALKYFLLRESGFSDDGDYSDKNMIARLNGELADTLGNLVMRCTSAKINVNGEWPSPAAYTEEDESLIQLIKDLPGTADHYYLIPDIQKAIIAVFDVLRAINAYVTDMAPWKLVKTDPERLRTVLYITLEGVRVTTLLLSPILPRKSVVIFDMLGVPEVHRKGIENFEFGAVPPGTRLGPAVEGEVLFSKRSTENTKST

[8] = viability loss in HepG2 hepatoma cells – cell-based, ATP luminescence, cherry-pick, activator set 2, cytotoxicity control, dose response (AID 1053143); type: functional
[9] = target: T4, Protein RecA (Mycobacterium tuberculosis, UniProt P9WHJ3); assay: Fluorescence Cell-Free Homogeneous Dose Retest to Identify Inhibitors of RecA-Intein Splicing Activity. [Related pubchem assays (depositor defined):AID2097, AID2223, AID489010, AID492950]; type: functional
T4 sequence (P9WHJ3 whole entry): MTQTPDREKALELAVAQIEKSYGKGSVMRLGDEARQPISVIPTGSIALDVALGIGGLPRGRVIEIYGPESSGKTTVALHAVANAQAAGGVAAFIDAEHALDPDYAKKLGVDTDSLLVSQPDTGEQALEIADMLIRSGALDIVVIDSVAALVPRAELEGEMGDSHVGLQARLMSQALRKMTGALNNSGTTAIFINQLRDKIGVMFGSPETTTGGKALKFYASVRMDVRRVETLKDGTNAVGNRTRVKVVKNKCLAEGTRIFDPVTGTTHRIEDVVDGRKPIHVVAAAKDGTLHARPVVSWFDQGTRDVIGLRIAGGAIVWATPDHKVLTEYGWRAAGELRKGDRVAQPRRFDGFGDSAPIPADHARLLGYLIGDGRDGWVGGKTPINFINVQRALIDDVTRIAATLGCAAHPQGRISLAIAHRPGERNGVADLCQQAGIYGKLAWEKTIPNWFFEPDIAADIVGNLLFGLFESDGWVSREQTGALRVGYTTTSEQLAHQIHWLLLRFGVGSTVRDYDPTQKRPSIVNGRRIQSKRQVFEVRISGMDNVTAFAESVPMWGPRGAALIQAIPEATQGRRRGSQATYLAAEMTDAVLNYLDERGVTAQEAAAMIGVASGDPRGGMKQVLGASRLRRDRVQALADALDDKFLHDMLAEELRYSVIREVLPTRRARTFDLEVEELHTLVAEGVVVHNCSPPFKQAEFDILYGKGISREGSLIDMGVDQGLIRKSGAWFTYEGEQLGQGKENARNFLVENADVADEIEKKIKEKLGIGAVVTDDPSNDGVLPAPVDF

[10] = tested on: Streptococcus; assay: GAS UMAA2166 growth inhibition – luminescence, BacTiterGlo, counter-screen for streptokinase expression inhibitor project, dose response (AID 1915); type: functional, organism-based; details: Streptococcus;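 note: potency for reduction of bacterial viability or growth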
[11] = Counterscreen for inhibitors of Trypanosoma brucei methionyl tRNA synthetase (MetRS): Luminescence-based cell-based high throughput dose response assay to identify compounds that are cytotoxic to Jurkat human T lymphocyte cells.; type: functional
[12] = target: T3, Methionyl-tRNA synthetase, putative; type: functional, Trypanosoma brucei brucei strain 927/4 GUTat10.1; remark: listed apart in the source
[13] = target: Transthyretin (Homo sapiens, UniProt P02766); assay: Luminescence-based cell-based high throughput dose response assay to identify activators of Transthyretin (TTR) transcription.; type: functional
[14] = target: 1-phosphatidylinositol 4,5-bisphosphate phosphodiesterase beta-3 (Homo sapiens, UniProt Q01970); assay: Fluorescence-based biochemical high throughput dose response assay to identify inhibitors of phospholipase C isozymes (PLC-B3).
[15] = target: 1-phosphatidylinositol 4,5-bisphosphate phosphodiesterase gamma-1 (Homo sapiens, UniProt P19174); assay: Counterscreen for inhibitors of phospholipase C isozymes (PLC-B3): Fluorescence-based biochemical high throughput dose response assay to identify inhibitors of phospholipase C isozymes (PLC-gamma1).
1-phosphatidylinositol 4,5-bisphosphate phosphodiesterase gamma-1, sequence (P19174 whole entry): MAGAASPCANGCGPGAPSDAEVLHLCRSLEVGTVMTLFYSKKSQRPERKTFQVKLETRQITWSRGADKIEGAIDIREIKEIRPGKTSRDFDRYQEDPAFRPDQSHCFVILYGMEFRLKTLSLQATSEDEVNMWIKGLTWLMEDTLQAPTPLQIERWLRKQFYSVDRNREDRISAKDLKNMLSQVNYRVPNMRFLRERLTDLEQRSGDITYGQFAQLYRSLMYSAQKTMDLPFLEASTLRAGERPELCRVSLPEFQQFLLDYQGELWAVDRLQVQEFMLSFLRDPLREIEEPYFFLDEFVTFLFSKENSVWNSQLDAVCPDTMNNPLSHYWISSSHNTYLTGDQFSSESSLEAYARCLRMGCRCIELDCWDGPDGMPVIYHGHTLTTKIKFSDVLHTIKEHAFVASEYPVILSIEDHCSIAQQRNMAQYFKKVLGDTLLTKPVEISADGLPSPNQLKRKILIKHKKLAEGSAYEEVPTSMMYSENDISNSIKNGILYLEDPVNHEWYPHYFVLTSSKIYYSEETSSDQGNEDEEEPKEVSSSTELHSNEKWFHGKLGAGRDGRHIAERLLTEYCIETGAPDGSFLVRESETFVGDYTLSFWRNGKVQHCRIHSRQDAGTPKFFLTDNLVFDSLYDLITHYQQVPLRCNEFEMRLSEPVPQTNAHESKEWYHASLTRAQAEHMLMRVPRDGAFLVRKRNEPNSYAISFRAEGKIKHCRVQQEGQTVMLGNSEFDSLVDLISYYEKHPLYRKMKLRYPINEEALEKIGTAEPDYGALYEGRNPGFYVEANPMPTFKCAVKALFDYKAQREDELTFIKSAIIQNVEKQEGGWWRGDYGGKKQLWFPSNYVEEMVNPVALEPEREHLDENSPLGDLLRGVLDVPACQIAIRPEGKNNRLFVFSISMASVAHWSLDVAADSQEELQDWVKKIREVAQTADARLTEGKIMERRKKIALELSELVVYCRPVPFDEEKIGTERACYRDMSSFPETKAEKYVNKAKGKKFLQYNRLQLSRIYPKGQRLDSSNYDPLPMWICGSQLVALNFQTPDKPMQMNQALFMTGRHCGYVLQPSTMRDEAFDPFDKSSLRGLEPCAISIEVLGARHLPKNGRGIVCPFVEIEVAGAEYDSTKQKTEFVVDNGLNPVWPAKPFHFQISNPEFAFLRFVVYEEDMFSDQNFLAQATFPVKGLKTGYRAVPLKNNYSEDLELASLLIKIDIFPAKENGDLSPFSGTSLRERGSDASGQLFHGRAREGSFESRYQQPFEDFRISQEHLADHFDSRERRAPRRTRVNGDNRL

1-phosphatidylinositol 4,5-bisphosphate phosphodiesterase beta-3, sequence (Q01970 whole entry): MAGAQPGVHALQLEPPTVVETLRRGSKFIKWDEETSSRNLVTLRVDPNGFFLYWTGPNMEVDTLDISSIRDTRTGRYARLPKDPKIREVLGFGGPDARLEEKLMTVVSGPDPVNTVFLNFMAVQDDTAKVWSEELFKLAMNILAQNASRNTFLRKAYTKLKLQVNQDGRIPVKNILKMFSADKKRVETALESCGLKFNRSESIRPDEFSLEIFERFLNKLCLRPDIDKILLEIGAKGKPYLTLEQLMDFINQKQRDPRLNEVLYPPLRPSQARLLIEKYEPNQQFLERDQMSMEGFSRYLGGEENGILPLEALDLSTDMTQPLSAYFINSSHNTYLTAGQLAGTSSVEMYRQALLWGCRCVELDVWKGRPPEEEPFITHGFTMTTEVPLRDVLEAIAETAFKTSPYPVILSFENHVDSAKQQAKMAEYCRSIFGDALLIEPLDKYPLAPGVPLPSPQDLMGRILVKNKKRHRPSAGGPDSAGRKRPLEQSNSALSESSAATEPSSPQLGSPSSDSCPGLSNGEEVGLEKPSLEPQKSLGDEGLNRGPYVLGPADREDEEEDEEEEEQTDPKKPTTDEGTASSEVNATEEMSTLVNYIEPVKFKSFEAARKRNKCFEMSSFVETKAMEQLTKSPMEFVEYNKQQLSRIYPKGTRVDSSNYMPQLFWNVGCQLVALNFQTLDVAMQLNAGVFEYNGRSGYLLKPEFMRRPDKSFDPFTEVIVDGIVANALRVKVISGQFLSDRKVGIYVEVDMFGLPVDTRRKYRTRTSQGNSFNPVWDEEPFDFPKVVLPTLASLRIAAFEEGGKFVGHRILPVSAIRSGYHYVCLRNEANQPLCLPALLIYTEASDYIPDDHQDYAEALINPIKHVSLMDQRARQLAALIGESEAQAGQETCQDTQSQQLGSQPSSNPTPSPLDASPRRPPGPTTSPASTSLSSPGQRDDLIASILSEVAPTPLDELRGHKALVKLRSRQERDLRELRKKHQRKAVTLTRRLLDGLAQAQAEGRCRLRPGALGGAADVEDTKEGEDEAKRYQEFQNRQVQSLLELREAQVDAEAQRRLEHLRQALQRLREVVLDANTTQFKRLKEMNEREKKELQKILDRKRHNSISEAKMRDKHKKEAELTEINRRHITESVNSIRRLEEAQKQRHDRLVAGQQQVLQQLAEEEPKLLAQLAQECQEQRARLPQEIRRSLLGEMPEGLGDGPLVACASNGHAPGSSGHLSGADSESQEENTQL

## O=C(CN1CCOCC1)N[C@@H]1CC[C@@H](CCNC(=O)C2CCC2)O[C@@H]1CO
[1]
  AC50: 14.8 µM (active)
[2]
  AC50: 14.8 µM (active)

## Cc1[nH]c2ccccc2c1/C=N/Nc1nc2ccccc2[nH]1
[3]
  EC50: 7.74 µM (active)
[4]
  AC50: > 380 µM (inactive)
[5]
  EC50: > 150 µM (not active)
[6]
  CC50: > 25 µM (active)
[7]
  IC50: 17.1 µM (inactive)
[8]
  AC50: 26 µM (active)
[9]
  EC50: 39.3 µM (active)
[10]
  EC50: 9.86 µM (active)
[11]
  IC50: 36.2 µM (inactive)
[12]
  IC50: 36.9 µM (inactive)

## CC(C)CNC(=O)CSc1nnc2ccccn12
[13]
  EC50: > 167 µM (inactive)

## O=Cc1cc(N=Nc2ccc(S(=O)(=O)O)cc2)ccc1O
[14]
  IC50: > 122 µM (inactive)
[15]
  IC50: 39.3 µM (inactive)

## Cc1ccccc1C(=O)NC1CCN(Cc2nnnn2C2CCCC2)CC1
[14]
  IC50: > 122 µM (inactive)
[15]
  IC50: > 122 µM (inactive)

## Cc1cccc(NC(c2ccc(O)cc2)c2ccc3ccc(C)nc3c2O)n1 (stereo not drawn)
[13]
  EC50: > 167 µM (inactive)

Source: ChEMBL document CHEMBL1201862, “PubChem BioAssay data set” (2004)
